Results on eight compounds are retold here after patent US4837241A (priority 1986, dated 1989).

SMILES strings stand for the structures.

The target of data set [1] is muscarinic acetylcholine receptors. The format is binding, rat (male Wistar). The conditions noted are these: 3H-QNB 1 nM; whole forebrain membranes, male Wistar rats; 37° C., 20 min, pH 7.1; non-specific: atropine 1 μg/ml.
For data set [2] the following is noted: background, in words; cited from earlier work.
The conditions of data set [3]: background, in words; cited from earlier work. The source holds these as a separate data set.
Another data set has as its system muscarinic. The conditions noted are these: background, in words; cited from earlier work.
Another data set concerns muscarinic cholinergic. The conditions noted are these: background, in words; cited from earlier work.

With `CCc1noc(C2=CCCN(C)C2)n1`, the “QNB binding Inhibition in vitro (IC50)” value in data set [1] is 3.5 µg/mL. Take `CCCCc1noc(C2=CCC(C)N(C)C2)n1` (centres unmarked): the “QNB binding Inhibition in vitro (IC50)” value in data set [1] turned out to be 3.3 µg/mL. In the case of `CC(C)c1noc(C2=CCCN(C)C2)n1`, the “QNB binding Inhibition in vitro (IC50)” value in data set [1] was 4.9 µg/mL. For `C1=C(c2nc(C3CC3)no2)CNCC1`, in data set [1], the “QNB binding Inhibition in vitro (IC50)” value was found to be 4.7 µg/mL.

As for `CCc1noc(C2=CC(C)CNC2)n1` (centres unmarked), the “QNB binding Inhibition in vitro (IC50)” value in data set [1] is 7.5 µg/mL. Consider `CCCc1nc(C2=CCCN(C)C2)no1`, for which the “QNB binding Inhibition in vitro (IC50)” value in data set [1] was determined as 3.2 µg/mL. Turning to `CN1CCC=C(c2nc(C3CC3)no2)C1`, in data set [1], the “QNB binding Inhibition in vitro (IC50)” value was 2.0 µg/mL. Turning to `COC(=O)C1=CCCN(C)C1` [arecoline, methyl 1-methyl-1,2,5,6-tetrahydropiperidine-3-carboxylate], the biological half life result in data set [2] was “very short biological half life”. The toxicity entry in data set [3] is “rather toxic compound”. The “separation between central and peripheral muscarinic effects” value in the data set on muscarinic was “small separation between central and peripheral muscarinic effects”. In the data set on muscarinic cholinergic, the cholinergic agonist entry is on record as “cholinergic agonist”.
